According to patent EP0837859B1, “TETRAHYDROFURAN ANTIFUNGALS” (SCHERING CORPORATION, priority 1995, dated 1997):

Tested on: 11 strains of C. albicans and tropicalis
Assay: in vitro antifungal activity in EMEM (geometric mean MIC)
Format: cell-based
Details: Candida albicans, read-out: geometric mean MICs

## CC[C@@H]([C@H](C)O)n1ncn(-c2ccc(N3CCN(c4ccc(OC[C@H]5CC[C@](Cn6cncn6)(c6ccc(F)cc6F)O5)cc4)CC3)cc2)c1=O
  MIC: ≥ 0.01 µg/mL
